The text below walks through data of ChEMBL document CHEMBL3351842, “Synthesis and biological characterization of new aryloxyindole-4,9-diones as potent trypanosomicidal agents” (Bioorg Med Chem Lett, 2014).

In general, IC50 refers to the point on the concentration scale where inhibition reaches its midpoint.

The subject of data set [1] is Trypanosoma cruzi. The data set can be described thus: Trypanocidal activity against Trypanosoma cruzi Y epimastigotes […] assessed as growth inhibition of parasite at 10 uM measured on day 5. The data set is classed as functional. The following applies: 120 h, read-out: GI.
Data set [2] concerns Trypanosoma cruzi. Description: Trypanocidal activity against Trypanosoma cruzi Y epimastigotes […] assessed as growth inhibition of parasite measured on day 5. The data set is classed as functional, organism-based. The settings on record: 120 h.
The next data set deals with J774. Description: Cytotoxicity against mouse J774 cells assessed as cell viability after 48 hrs by MTT assay. The data set is classed as cell-based. The settings on record: J774, 48 h. Background: Formazan colour is commonly taken as a measure of viable cells.
The nature of data set [3]: Selectivity index, ratio of IC50 for mouse J774A cells to IC50 for Trypanosoma cruzi Y epimastigotes. The data set is classed as toxicity, cell-based. The following applies: J774A cells versus Trypanosoma cruzi Y epimastigotes, read-out: Ratio IC50.
The subject of data set [4] is Trypanosoma cruzi. Description: microbe, parasite or virus in culture. The settings on record: Y, J774, in Mus musculus, 120 h, read-out: GI.
Description: Trypanocidal activity against Trypanosoma cruzi Y epimastigotes infected in mouse J774 cells assessed as growth inhibition of parasite at 5 uM measured on day 5

Turning to `O=C1C=C(Oc2ccccc2)C(=O)c2ccccc21`, the inhibition of growth at 10 µM with Trypanosoma cruzi [1] was found to be 87.2%. Moreover, the IC50 with Trypanosoma cruzi [2] was found to be 50 nM; in the data set on J774, 12500 nM. The selectivity ratio in data set [3] worked out at 250.

Turning to `CCOC(=O)c1cc2c(OC)cc(Br)c(OC)c2[nH]1`, the inhibition of growth at 10 µM with Trypanosoma cruzi [1] was 26.9%.

Consider `CCOC(=O)c1cc2c(OC)cc(Br)c(OC)c2n1CC`, for which the inhibition of growth at 10 µM in the data set on Trypanosoma cruzi [1] stood at 2.9%.

`CCOC(=O)c1cc2c(n1CC)C(=O)C(Br)=CC2=O`: the inhibition of growth at 10 µM with Trypanosoma cruzi [1] came out at 97.1%. Further, in the data set on Trypanosoma cruzi [2], the concentration for half-maximal inhibition (IC50) came to 530 nM.

For `CCOC(=O)c1cc2c(n1CC)C(=O)C(Oc1ccccc1)=CC2=O`, the inhibition of growth at 10 µM in the data set on Trypanosoma cruzi [1] worked out at 84.7%. Moreover, the IC50 was 220 nM in the data set with Trypanosoma cruzi [2] and 22000 nM with J774. Besides, the selectivity ratio in data set [3] was 100.

For `CCOC(=O)c1cc2c(n1CC)C(=O)C(Oc1ccc(C)cc1)=CC2=O`, the inhibition of growth at 10 µM in the data set on Trypanosoma cruzi [1] turned out to be 92.1%. Further, the IC50 in the data set on Trypanosoma cruzi [2] is 20 nM.

With `CCOC(=O)c1cc2c(n1CC)C(=O)C(Oc1ccccc1C)=CC2=O`, the inhibition of growth at 10 µM with Trypanosoma cruzi [1] turned out to be 100%. Moreover, the results for the half-inhibitory concentration (IC50) in the data set on Trypanosoma cruzi [2] and with J774 were 140 nM and 12500 nM, respectively. In data set [3], the selectivity ratio came out at 89.3.

On to `CCOC(=O)c1cc2c(n1CC)C(=O)C(Oc1ccc(OC)cc1)=CC2=O`, for which the inhibition of growth at 10 µM in the data set on Trypanosoma cruzi [1] was 90.5%. Further, the IC50 stood at 20 nM with Trypanosoma cruzi [2] and 12500 nM in the data set on J774. Also, the selectivity ratio in data set [3] came to 625.

Take `CCOC(=O)c1cc2c(n1CC)C(=O)C(Oc1ccc(Cl)cc1)=CC2=O`: in the data set on Trypanosoma cruzi [1], the inhibition of growth at 10 µM stood at 94.6%. The IC50 in the data set on Trypanosoma cruzi [2] was found to be 130 nM.

Turning to `CC1CS(=O)(=O)CCN1/N=C/c1ccc([N+](=O)[O-])o1` (configuration not stated) [NIFURTIMOX], in the data set on Trypanosoma cruzi [2], the IC50 is 7000 nM. Besides, the inhibition of growth at 5 µM in the data set on Trypanosoma cruzi [4] was found to be 49.9%. Also, the selectivity ratio in data set [3] came out at 40.
